The values that follow come from patent US11771765B2, “Light augmented treatment method” (The Procter & Gamble Company, priority 2019, dated 2023).

Molecules are shown by their SMILES.

Assay [1] relates to protoporphyrin IX (PPIX). The assay is described as follows: Protoporphyrin IX levels in treated M. furfur cells by HPLC. Particulars: for PPIX levels upon treatment: non-chelator antifungals, Table 11. Type of assay: cell-based. The source says: PPIX absorb light in the 400 nm range, and when light is absorbed, PPIX transitions to an excited triplet state that can react with triplet oxygen to produce singlet oxygen or the excited porphyrin can generate ROS through single electron processes. These reactive species result in a loss of cell viability.
(§1) M. furfur cells are exposed to other antifungals that are not considered chelators (i.e. selenium sulfide (SeSx), Sulfur, Climbazole, and Terbinafine). After treatment, cells are then exposed to light, or not exposed to light. Both OD are measured to measure growth and PPIX levels are measured.

In another assay the test system is M. furfur cells. The assay is described as follows: Non-chelator antifungals with or without light, M. furfur growth (Table 11). Format: cell-based, Malassezia furfur. Particulars: for effect of adding light on efficacy: non-chelator antifungals, OD values of Table 11. The procedure:
as §1

The subject of the next assay is M. furfur CBS 7982. The assay is described as follows: Fractional Inhibitor Concentration (FIC): antimicrobial plus 409 nm light on M. furfur growth. Type of assay: cell-based, Malassezia furfur. Particulars: for growth, OD 600 nm: 27 h growth. The procedure:
Fractional Inhibitor Concentration (FIC) is a conventional methodology for evaluating the interaction of two antimicrobial chemicals. […] In an embodiment of the present invention, FIC is used to determine combinatorial effects of one chemical and exposure to light on Malassezia growth and/or viability in an in vitro system.
• 1. M. furfur CBS 7982 cells are exposed to a varying concentrations of an antimicrobial active (e.g. ZPT, Piroctone Olamine) for a specified amount of time (e.g. 2 min to 3 hours). • 2. After exposure, the antimicrobial is washed away by centrifugation of the cells and a series of washes • 3. Cells are then exposed to light at a wavelength of 409 nm for varying lengths of time • 4. Cells are then allowed to grow up overnight (e.g. 17 h) to determine the impact of the treatment on viability and growth of the organism by measuring OD600 II. Data Analysis: • 1. Inhibition of growth is determined to be where the OD value obtained is <=50% of the untreated control • 2. The lowest concentration value of the antimicrobial agent which inhibits growth is determined • 3. Likewise, the shortest light exposure time is determined that gives growth inhibition • 4. Finally, the combination of the lowest concentration of the antimicrobial and the shortest light exposure time that provides growth inhibition is determined • 5. The FIC value is determined using the calculation below:
[formula] • 6. The combinatorial effect of the antimicrobial and light is classified according to the chart below: […]
M. furfur is incubated for one hour with varying concentrations of Piroctone Olamine. Cell pellets are collected by centrifugation so that most of the anti-fungal material has been removed. The cell pellet is suspended in PBS and 500 uL samples are distributed to four 12 well plates and treated with light (409 nm) for 1, 10 or 60 minutes or stored in the dark. Samples are then diluted into mDixon, and incubated for 16 h with subsequent growth measured by OD 600 nm.
M. furfur is incubated for one hour with varying concentrations of Hinokitiol. Cell pellets are collected by centrifugation so that most of the anti-fungal material has been removed. The cell pellet is suspended in PBS and 500 uL samples are distributed to four 12 well plates and treated with light (409 nm) for 1, 10 or 60 minutes or stored in the dark. Samples are then diluted into mDixon, and incubated for 27 h with subsequent growth measured by OD 600 nm. […]

For assay [2], the system named is protoporphyrin IX (PPIX). Kind of assay: Protoporphyrin IX levels in treated M. furfur cells by HPLC. Format: cell-based.

`S1SSSSSSS1` [Sulfur] yielded a PPIX in the assay with protoporphyrin IX (PPIX) [1] (8 ppm (Table 11)) of 1.6 ng. Moreover, the “PPIX levels upon treatment” value in the assay on protoporphyrin IX (PPIX) [1] was “PPIX levels do not change”. Moreover, the OD600 in the assay with M. furfur cells (8 ppm, Dark) turned out to be 4.52; in the assay on M. furfur cells (8 ppm, Light) it was 3.62. Besides, the “effect of adding light on efficacy” value in the assay with M. furfur cells is listed as “does not increase their efficacy”.
Take `CC(C)c1cccc(=O)c(O)c1` [Hinokitiol]: the “shortest light exposure time when applied in combination to give growth inhibition” value in the assay with M. furfur CBS 7982 (409 nm light, with the lowest inhibiting concentration) was found to be 1 min. For the same compound, the “growth, OD 600 nm” value was found to be 8.3 in the assay on M. furfur CBS 7982 (Hinokitiol 3 ppm 1 h, 409 nm light 0 min); 7.9 with M. furfur CBS 7982 (Hinokitiol 3 ppm 1 h, 409 nm light 1 min); 4.6 with M. furfur CBS 7982 (Hinokitiol 3 ppm 1 h, 409 nm light 10 min); 4.5 in the assay with M. furfur CBS 7982 (Hinokitiol 3 ppm 1 h, 409 nm light 60 min); 8.5 with M. furfur CBS 7982 (Hinokitiol 6 ppm 1 h, 409 nm light 0 min); 1.8 in the assay on M. furfur CBS 7982 (Hinokitiol 6 ppm 1 h, 409 nm light 1 min). Besides, the “growth, OD 600 nm” value with M. furfur CBS 7982 (Hinokitiol 6 ppm 1 h, 409 nm light 10 min) was determined as 0.3; in the assay on M. furfur CBS 7982 (Hinokitiol 6 ppm 1 h, 409 nm light 60 min) it was 0.4; in the assay on M. furfur CBS 7982 (Hinokitiol 12 ppm 1 h, 409 nm light 0 min), 8.6; in the assay on M. furfur CBS 7982 (Hinokitiol 12 ppm 1 h, 409 nm light 1 min), 2.3; with M. furfur CBS 7982 (Hinokitiol 12 ppm 1 h, 409 nm light 10 min), 0.2; in the assay on M. furfur CBS 7982 (Hinokitiol 12 ppm 1 h, 409 nm light 60 min) it was 0.3. Besides, the “growth, OD 600 nm” value in the assay on M. furfur CBS 7982 (Hinokitiol 24 ppm 1 h, 409 nm light 0 min) stood at 6.1; with M. furfur CBS 7982 (Hinokitiol 24 ppm 1 h, 409 nm light 1 min) it was 0.6; with M. furfur CBS 7982 (Hinokitiol 24 ppm 1 h, 409 nm light 10 min), 0.2; in the assay on M. furfur CBS 7982 (Hinokitiol 24 ppm 1 h, 409 nm light 60 min), 0.2; in the assay on M. furfur CBS 7982 (Hinokitiol 48 ppm 1 h, 409 nm light 0 min), 5.7; in the assay on M. furfur CBS 7982 (Hinokitiol 48 ppm 1 h, 409 nm light 1 min), 0.2. In addition, the “growth, OD 600 nm” value was 0.1 with M. furfur CBS 7982 (Hinokitiol 48 ppm 1 h, 409 nm light 10 min); 0.1 in the assay with M. furfur CBS 7982 (Hinokitiol 48 ppm 1 h, 409 nm light 60 min); 5.9 in the assay on M. furfur CBS 7982 (Hinokitiol 96 ppm 1 h, 409 nm light 0 min); 0.3 in the assay on M. furfur CBS 7982 (Hinokitiol 96 ppm 1 h, 409 nm light 1 min); 0.0 in the assay with M. furfur CBS 7982 (Hinokitiol 96 ppm 1 h, 409 nm light 10 min); 0.0 with M. furfur CBS 7982 (Hinokitiol 96 ppm 1 h, 409 nm light 60 min). Besides, in the assay on M. furfur CBS 7982 (antimicrobial alone, no light, inhibition = OD <=50% of untreated control), the “lowest concentration to give growth inhibition” value is recorded as over 96 ppm. In the assay with M. furfur CBS 7982 (antimicrobial plus 409 nm light), the FIC value is listed as 0.08. The “Combinatorial Effect” value in the assay with M. furfur CBS 7982 (antimicrobial plus 409 nm light, classified by FIC value) was “synergistic”. For the same compound, the “lowest concentration when applied in combination with light to give growth inhibition” value in the assay on M. furfur CBS 7982 (with 409 nm light, inhibition = OD <=50% of untreated control) came out at 6 ppm.
Regarding `S=[Se]=S` [SeSx, selenium sulfide], the “PPIX levels upon treatment” value in the assay with protoporphyrin IX (PPIX) [1] was “PPIX levels do not change”. Besides, the OD600 is on record as 3.31 in the assay with M. furfur cells (0.4 ppm, Dark); 2.27 in the assay on M. furfur cells (0.4 ppm, Light); 1.51 in the assay on M. furfur cells (0.8 ppm, Dark); 1.44 in the assay on M. furfur cells (0.8 ppm, Light). For the same compound, the “effect of adding light on efficacy” value with M. furfur cells was “does not increase their efficacy”. In addition, the PPIX turned out to be 2.6 ng in the assay with protoporphyrin IX (PPIX) [2] (0.4 ppm (Table 11)) and 1.2 ng in the assay with protoporphyrin IX (PPIX) [2] (0.8 ppm (Table 11)).
In the assay on protoporphyrin IX (PPIX) [1] (0.5 ppm (Table 11, second part)), `CN(C/C=C/C#CC(C)(C)C)Cc1cccc2ccccc12` [Terbinafine] returned a PPIX of 6.7 ng. Also, in the assay with protoporphyrin IX (PPIX) [1], the “PPIX levels upon treatment” value is given as “PPIX levels do not change”. Also, the OD600 in the assay with M. furfur cells (0.5 ppm, Dark (second part)) is listed as 12.5; in the assay with M. furfur cells (0.5 ppm, Light (second part)), 10.6. For the same compound, the “effect of adding light on efficacy” value with M. furfur cells is recorded as “does not increase their efficacy”.
`CC(C)(C)C(=O)C(Oc1ccc(Cl)cc1)n1ccnc1` (stereo not shown) [Climbazole]: the PPIX with protoporphyrin IX (PPIX) [1] (1 ppm (Table 11, second part)) came to 4.5 ng. Further, the “PPIX levels upon treatment” value in the assay with protoporphyrin IX (PPIX) [1] is recorded as “PPIX levels do not change”. Also, the OD600 in the assay on M. furfur cells (1 ppm, Dark (second part)) is 11.9; in the assay with M. furfur cells (1 ppm, Light (second part)), 10.2. For the same compound, the “effect of adding light on efficacy” value in the assay with M. furfur cells is listed as “does not increase their efficacy”.
